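Step 1: Grow cells in 96-well plates. Step 2: Expose to compound for 48 hours at 5 concentrations. Step 3: Interpolate endpoints linearly; if unreached, use highest concentration. Abbreviation: GI50, concentration required for 50% inhibition of growth. TGI: total growth inhibition.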
Legend:
Experiment in all cases: NCI-60 cell line screen, 48 h
786-0 renal = tested on: 786-0 renal
BT-549 breast = tested on: BT-549 breast
CAKI-1 renal = tested on: CAKI-1 renal
DU-145 prostate = tested on: DU-145 prostate
HCC-2998 colon = tested on: HCC-2998 colon
HOP-92 NSCLC = tested on: HOP-92 NSCLC
HS 578T breast = tested on: HS 578T breast
MCF7 breast = tested on: MCF7 breast
MDA-MB-435 = tested on: MDA-MB-435
MDA-N = tested on: MDA-N
SF-539 CNS = tested on: SF-539 CNS

Compound | TGI (786-0 renal) | TGI (BT-549 breast) | TGI (CAKI-1 renal) | TGI (DU-145 prostate) | TGI (HCC-2998 colon) | TGI (HOP-92 NSCLC) | TGI (HS 578T breast) | TGI (MCF7 breast) | TGI (MDA-MB-435) | TGI (MDA-N) | TGI (SF-539 CNS) | GI50 (BT-549 breast) | GI50 (CAKI-1 renal) | GI50 (DU-145 prostate) | GI50 (HCC-2998 colon) | GI50 (MDA-MB-435) | GI50 (SF-539 CNS) | GI50 (HOP-92 NSCLC) | GI50 (HS 578T breast) | GI50 (MCF7 breast)
CCN(CC)COC(=S)S | > 100 µM | > 100 µM | > 100 µM | > 100 µM | > 78.1 µM | > 100 µM | > 100 µM | > 100 µM | > 100 µM | > 100 µM | > 100 µM |  |  |  |  |  |  |  |  | 
Cn1c2c3c(F)c(F)ccc3nc-2cc2ccccc21 | 11.8 µM | 20 µM | 12.2 µM | 10.2 µM | 3.63 µM | 49.1 µM | > 100 µM | 30 µM | 15.7 µM | 15 µM | 13.5 µM |  |  |  |  |  |  |  |  | 
CCN(CC)CCNc1ccc2nnn3c4ccccc4c(=O)c1c23 | 20.7 µM |  | > 33.7 µM |  | 20.9 µM | 11.7 µM |  |  |  |  | 19.6 µM |  |  |  |  |  |  |  |  | 
C[N+](C)([O-])Cc1cc(-c2ccccc2)ccc1O | > 100 µM | > 100 µM | > 100 µM | > 100 µM | > 100 µM | > 100 µM | > 100 µM |  | > 100 µM |  |  |  |  |  |  |  |  |  |  | 
O=c1nc2sc3ccc4ccccc4c3n2[nH]c1=O |  |  |  |  | > 100 µM |  |  |  |  |  | > 100 µM |  |  |  |  |  |  |  |  | 
COC(=O)c1cc(C)n(CN(Cc2ccccc2)Cn2nc(C(=O)OC)cc2C)n1 | > 100 µM | > 100 µM | > 100 µM | > 100 µM |  | > 100 µM | > 100 µM | > 100 µM | > 100 µM | > 100 µM | > 68.7 µM |  |  |  |  |  |  |  |  | 
NC(=O)C(Nc1ccc(Cl)cc1)c1cc2cc(Br)ccc2nc1Cl (centres undefined) | > 50 µM | > 50 µM | > 50 µM | > 50 µM | > 50 µM | > 50 µM | > 50 µM | > 50 µM | > 50 µM | > 50 µM | > 50 µM |  |  |  |  |  |  |  |  | 
Cc1cc(C)n(CN(Cn2nc(C)cc2C)c2ccccc2)n1 | 48.5 µM | 69.2 µM | > 100 µM | > 100 µM |  | > 100 µM | > 100 µM | 68.1 µM | 29.1 µM | 27.6 µM | 38.3 µM |  |  |  |  |  |  |  |  | 
CCN(CC)CCNc1ccc(C)c2sc3ccccc3c(=O)c12 | 9.32 µM | 19.4 µM | 8.02 µM | 18.3 µM | 14 µM |  | 6.63 µM | 5.8 µM | 4.49 µM | 4.04 µM | 8.04 µM |  |  |  |  |  |  |  |  | 
CC(=O)N/C(=C\c1ccc(/C=C(\NC(C)=O)C2=NC3C(=O)c4ccccc4C(=O)C3N2)cc1)C1=NC2C(=O)c3ccccc3C(=O)C2N1 (centres undefined) |  |  | > 100 µM |  |  | > 100 µM |  |  |  |  | > 100 µM |  |  |  |  |  |  |  |  | 
CC1=CC(C)(C)Nc2ccc(CSc3ccccc3)cc21 | 72.1 µM | > 100 µM | > 100 µM | 71.5 µM | 45.1 µM | > 100 µM | > 100 µM | 60.9 µM | 63.4 µM | 69.9 µM | > 100 µM |  |  |  |  |  |  |  |  | 
O=C1C(Cl)C(c2cc3cc(Br)ccc3nc2Cl)N1c1c(Cl)cccc1Cl (centres undefined) | > 25 µM | > 25 µM | > 25 µM | > 25 µM | > 25 µM | > 25 µM | > 25 µM | 22.6 µM | > 25 µM | > 25 µM | 10.7 µM |  |  |  |  |  |  |  |  | 
CC[C@@H](/C=C\CCC1(C[C@@H](N)CCC=C(C)C)OCCO1)O[Si](C(C)C)(C(C)C)C(C)C | 31.8 µM | 35 µM | 35.4 µM | 40.3 µM | 26 µM | 28.7 µM | 52.4 µM | 30.2 µM | 34.9 µM | 30.7 µM | 34.1 µM |  |  |  |  |  |  |  |  | 
O=C(O)c1nccnc1C(=O)O | > 100 µM |  | > 100 µM |  | > 100 µM | > 100 µM |  |  |  |  | > 100 µM |  |  |  |  |  |  |  |  | 
O=[As](O)(O)c1ccc2nc3cc([As](=O)(O)O)ccc3nc2c1 | > 100 µM | > 100 µM | > 100 µM | > 100 µM | > 100 µM | > 100 µM | > 100 µM | > 100 µM | > 100 µM | > 100 µM |  |  |  |  |  |  |  |  |  | 
CCCCCCCCCCCCCCCC(=O)OC1C(O)C(CO)OC(OC)C1NC(=O)N(CCCl)N=O (centres undefined) |  |  | > 100 µM |  |  |  |  |  |  |  | 6.16 µM |  |  |  |  |  |  |  |  | 
C=CCc1cccc(/C=N\N=C(/N)NO)c1O |  |  | 9.01 µM |  | 33.1 µM | > 67.9 µM |  | 9.82 µM |  |  | 6.81 µM |  |  |  |  |  |  |  |  | 
CN(C)C(=O)C1CCN(Cc2c[nH]c3ccccc23)CC1 | > 100 µM | > 100 µM | > 100 µM | > 100 µM |  | > 100 µM | > 100 µM | > 100 µM | > 100 µM | > 100 µM |  |  |  |  |  |  |  |  |  | 
Nc1ccccc1N=Nc1c(S(=O)(=O)O)cc2cc(S(=O)(=O)O)cc(O)c2c1O | > 100 µM | > 100 µM | > 100 µM | > 100 µM | > 100 µM | > 100 µM | > 100 µM | > 100 µM | > 100 µM | > 100 µM |  |  |  |  |  |  |  |  |  | 
O=C(/C=C/c1ccc(O)c(O)c1)NCCc1ccc(-c2ccccc2)cc1 | > 100 µM | > 100 µM | > 100 µM | > 100 µM | > 100 µM |  | > 100 µM | > 100 µM |  |  | > 100 µM |  |  |  |  |  |  |  |  | 
CCOC(=O)NC(Nc1ccc(Cl)cn1)(C(F)(F)F)C(F)(F)F |  | > 100 µM |  | > 100 µM | > 100 µM |  | > 100 µM | > 100 µM | > 100 µM | > 100 µM | > 100 µM |  |  |  |  |  |  |  |  | 
CC(C)CN(CC#N)CC(C)C | > 100 µM | > 100 µM | > 100 µM | > 100 µM | > 100 µM | > 100 µM | > 100 µM | > 100 µM | > 100 µM | > 100 µM |  |  |  |  |  |  |  |  |  | 
Cc1c2c(ccc3ccccc32)c[n+]2ccccc12 | > 100 µM |  | > 100 µM |  | 26 µM | 90.8 µM |  |  |  |  | 33.2 µM |  |  |  |  |  |  |  |  | 
Cn1c(-c2ccc(N=NNc3ccc(-c4n[nH]c(=S)n4C)cc3)cc2)n[nH]c1=S | > 100 µM | 12.6 µM |  | 30.6 µM |  | 8.84 µM | > 100 µM | > 100 µM | > 100 µM | > 100 µM |  |  |  |  |  |  |  |  |  | 
Cc1ccc(-c2cc(-c3c(C)nn(C)c(=O)c3N)[nH]n2)cc1 | > 100 µM |  | > 100 µM | > 100 µM | > 100 µM | > 100 µM | > 100 µM | > 100 µM | > 100 µM | > 100 µM | > 100 µM |  |  |  |  |  |  |  |  | 
Cc1ccc(C2CC(c3cccc(Nc4ccncc4)c3)=NN2c2ccccc2)cc1 (centres undefined) |  | 3.37 µM | 3.02 µM | 3.6 µM | 2.96 µM |  |  |  | 3.06 µM |  | 3.16 µM | 1.81 µM | 1610 nM | 1890 nM | 1600 nM | 1640 nM | 1.74 µM |  |  | 
[O-][n+]1c(-c2ccccc2)c2nc3ccccc3nc2c2ccccc21 | > 100 µM |  | > 100 µM |  | > 100 µM | > 100 µM |  |  |  |  | > 100 µM |  |  |  |  |  |  |  |  | 
O=C(O)Cn1c2c(c3c(O)cccc31)C(=O)c1ccccc1-2 |  | > 100 µM | > 100 µM | > 100 µM | > 100 µM | > 100 µM | > 100 µM | > 100 µM | > 100 µM |  | > 100 µM | 12.8 µM | > 100000 nM | 51.9 nM | > 100000 nM | > 100000 nM | 5.62 µM | > 100 µM | > 100 µM | > 100 µM
